# Experimental data as given in ChEMBL document CHEMBL1134369, “Inhibition of heme detoxification processes underlies the antimalarial activity of terpene isonitrile compounds from marine sponges” (J Med Chem, 2001).
# Tested on: Plasmodium falciparum
# Experiment: Antiplasmodial activity against Plasmodium falciparum D6
# Assay type: functional, organism-based
row,SMILES,IC50
1,[C-]#[N+][C@@]1(C)CC[C@H]2[C@H]3[C@H]4[C@H](CC[C@@H]31)[C@H](C)C(C)=C[C@@H]4C[C@@H]2C,210 nM
2,[C-]#[N+][C@]1(C)[C@H](C)C[C@@H]2C[C@H](C)[C@H]3CC[C@](C)(N=C=S)[C@H]4CC[C@H]1[C@@H]2[C@H]34,126 nM
3,[C-]#[N+][C@@]1(C)CC[C@H]2[C@H]3[C@@H]4[C@H](C[C@@H](C)[C@@](C)(N=C=O)[C@H]4CC[C@@H]31)C[C@@H]2C,9.4 nM
4,[C-]#[N+][C@@]1(C)CC[C@H]2[C@H]3[C@H]4C(=CC(C)(C)C[C@@H]4C[C@@H]2C)CC[C@@H]31,249 nM
5,[C-]#[N+][C@@]1(C)CC[C@H]2[C@H]3[C@H]4C(=CC[C@@H]31)CC(C)(C)C[C@@H]4C[C@@H]2C,285 nM
6,C=C[C@H]1C[C@H](C)[C@H]2CC[C@](C)(N=C=S)[C@H]3CCC(=C)[C@]1(O)[C@H]23,2310 nM
7,[C-]#[N+][C@@]1(C)CC[C@H]2[C@H]3[C@@H](C(=C)CC[C@@H]31)[C@H](CC(=C)C)C[C@@H]2C,1750 nM
8,[C-]#[N+][C@@]1(C)CC[C@H]2[C@@H]3[C@@H]1CC[C@@H](C)[C@]3(/C=C/C(=C)C)C[C@@H]2C,289 nM
9,[C-]#[N+][C@]1(C)[C@H](C)C[C@@H]2C[C@H](C)[C@H]3CC[C@](C)([N+]#[C-])[C@H]4CC[C@H]1[C@@H]2[C@H]34 [DIISOCYANOADOCIANE],14.5 nM
10,[C-]#[N+][C@@]1(C)CC[C@H]2[C@H]3[C@@H](C(=C)CC[C@@H]31)[C@@H](C=C(C)C)C[C@@H]2C,47.4 nM
11,[C-]#[N+][C@@]1(C)CC[C@H]2[C@H]3[C@@H](C(C)=CC[C@@H]31)[C@H](C=C(C)C)C[C@@H]2C,1020 nM
12,[C-]#[N+][C@@]1(C)CC[C@H]2[C@H]3[C@@H](C(=C)CC[C@@H]31)[C@H](CC(C)(C)N=C=S)C[C@@H]2C,1320 nM
13,[C-]#[N+][C@@]1(C)CC[C@H]2[C@H]3C(=C(C)CC[C@@H]31)[C@@H](C=C(C)C)C[C@@H]2C,197 nM
14,[C-]#[N+][C@]1(C)[C@H](C)C[C@@H]2C[C@H](C)[C@H]3CC[C@](C)(N=C=O)[C@H]4CC[C@H]1[C@@H]2[C@H]34,220 nM
15,CC(C)=CCC[C@@H](C)[C@H]1CC[C@](C)(N=C=S)[C@H]2CCC(C)=C[C@H]12,> 30200 nM
